According to patent publication US7608249B2, “Enhanced substrate imaging by reversible binding to a paramagnetic complex” (Bracco Imaging S.p.A., priority 2001, dated 2009):

Columns and labels:
[1] = Affinity of paramagnetic complex towards substrate by PRE method; type: binding
From the text: (§1) Since the relaxivity of the two paramagnetic species involved in the equilibrium, that bound to the substrate molecule and that unbound, are different, the well-established Proton Relaxation Enhancement (PRE) method (Aime S, Fasano M, Terreno E, Botta M in The Chemistry of Contrast Agents in Medical Magnetic Resonance Imaging, Merbach A E, Tóth E (eds), Wiley & Sons: Chichester, 2001, 203-209) may be conveniently used for estimating the affinity of the paramagnetic complex towards the substrate molecule.
(§2) The KA values obtained for the adducts disclosed in the following are measured according to this PRE method.

[2] = Affinity of paramagnetic complex towards substrate by Proton Relaxation Enhancement (PRE) method; type: binding; details: Lactate; pH 7 and 25° C.
From the text: as §1, §2
By adding lactate to an aqueous solution of GdDO3A the following equilibrium takes place: GdDO3A(H2O)2+Lactate ? GdDO3A(Lactate)+2H2O
Since the relaxivity of the two Gd(III) species involved in the equilibrium are different (higher for GdDO3A(H2O)2), the well-consolidated Proton Relaxation Enhancement (PRE) method (Aime S, Fasano M, Terreno E, Botta M in The Chemistry of Contrast Agents in Medical Magnetic Resonance Imaging, Merbach A E, Tóth E (eds), Wiley & Sons: Chichester, 2001, 203-209) may be conveniently used for estimating the affinity of the GdDO3A complex towards Lactate.

binding strength ([1]; inorganic phosphate, pH 7.4 and 25° C.) [M⁻¹] | Compound | KA ([1]; aspartate, 298 K and pH 7) [M⁻¹] | KA ([1]; oxalate, 298K and pH 7) [M⁻¹] | KA [2] [M⁻¹] | KA ([1]; citrate, pH 7 and 25° C.) [M⁻¹]
 | 10-[(3-carboxyphenyl)methyl]-1,4,7,10-tetraazaciclododecane-1,4,7-triacetic acid gadolinium complex [Gd-3] | 120 | > 50000 |  | 
50 | O=C([O-])CN1CCNCCN(CC(=O)[O-])CCN(CC(=O)[O-])CC1.[Gd+3] [GdDO3A] |  |  | 150 | 40
